Assay type in all cases: cell-based
One assay has as its system MAPK pathway. Briefly: Western blot of MAPK pathway in PANC-1 cells. The following applies: 5.5 mM sugar, 48 h. As for the experimental part: FIG. 23 depicts Western blot analysis examining MAPK pathway expression in accordance with an embodiment of the present invention. PANC-1 pancreatic cancer cells were incubated in 2 mM glucose, 5.5 mM glucose or 5.5 mM fructose for 48 hours, after which Western blot analysis on total protein lysates was employed to examine phosphorylated MEK (pMEK), pRSK, and pCREB, and corresponding total MEK, RSK, and CREB levels.
Several signal transduction pathways may be involved in fructose-mediated pancreatic cancer growth but given the importance of the MAPK pathway in proliferation, the inventors believed that MAPK was involved. In the MAPK pathway, MEK mediated phosphorylation of the p44/42 MAP kinase (ERK) is the first step in this cascade, which results in phosphorylation of p90^Rsk, leading to transcriptional activation of CREB, and AP1, activating gene transcription and promoting cellular growth. The inventors employed Western blot analysis to examine MAPK pathway expression in pancreatic cancer cells incubated in 2 mM glucose, 5.5 mM glucose, and 5.5 mM fructose for 48 hours. Levels of the active phosphorylated proteins, pERK, pRSK, and pMEK were normalized to total ERK, RSK, and MEK levels respectively, and compared between the fructose-, and glucose-treated PANC-1 cells.
A general note: Immunoblotting shows a protein as a band on a membrane.

The test system of another assay is PANC-1 cells. Briefly: PANC-1 proliferation in fructose versus glucose (MTS assay). How it is done:
FIG. 13 depicts higher proliferation rates in pancreatic cancer cells in fructose (5.5 mM) than glucose (5.5 mM) containing medium in accordance with an embodiment of the present invention. PANC-1 cells were pre-incubated in 2 mM glucose, after which they were plated in 5.5 mM fructose or glucose for times between 12-72 h, after which proliferative rates were measured using an MTS assay. Proliferative rates are expressed as the percentage difference between cells grown in 5.5 mM fructose versus 5.5 mM glucose. p<0.01 for times >48 h.
FIG. 14 depicts proliferation rates of pancreatic cells in different fructose or glucose concentrations in accordance with an embodiment of the present invention. PANC-1 cells were plated in a range of fructose or glucose concentrations (5-25 mM) for 72 h, after which proliferative rates were measured using an MTS assay. *, p<0.05 for concentrations between 5-25 mM fructose versus glucose.
FIG. 17 depicts cell proliferation regardless of co-existent glucose concentration in accordance with an embodiment of the present invention. PANC-1 cells were pre-incubated in 2 mM glucose prior to treatment with a range of concentrations (0-15 mM) mixed with a range of fructose concentrations (0-15 mM) for 72 h. PANC-1 cell proliferative rates were then measured using the MTS assay (absorbance in arbitrary units).
Standard media for maintenance cancer cell line culture, including pancreatic cancer cells such as PANC-1 cells contain either low- (5-7 mM), or high- (12-25 mM) glucose concentrations. […] Proliferative rates were then measured in replicate (minimum of 6) aliquot wells of the pancreatic cancer cells, and the change (expressed as percent increase) in proliferative rates compared between cells grown in glucose, or fructose containing medium.
This first result intrigued the inventors, but given there is little documentation regarding physiological fructose concentrations, the inventors first considered that the “apparent” pro-proliferative effects of fructose were simply a consequence of the highly stylized in vitro experimental conditions, and that if the pancreatic cancer cells were cultured in higher glucose concentrations, this would result in similar proliferative rates to those the inventors observed following culture in 5.5 mM fructose. […] MTS assay was employed to measure pancreatic cancer cell proliferative rates, which utilizes mitochondrial oxidation to quantify cell proliferation. As the inventors were examining carbohydrate-mediated effects, the inventors considered the change observed in proliferative rates, as measured by this assay, simply reflected changes in mitochondrial oxidation. […]
(Formazan colour is commonly taken as a measure of viable cells.)

In the next assay the test system is AP1. Briefly: ELISA-based transbinding AP1 assay in MCF-7 cells. The following applies: 5.5 mM sugar, 24 h. How it is done: FIG. 12 depicts an increase in AP1 activation in fructose-treated cells in accordance with an embodiment of the present invention. MCF-7 breast cancer cells were incubated in 2 mM glucose, or 5 mM glucose or fructose for 24 h, after which nuclear extracts were incubated with a biotinylated AP-1 probe in binding buffer. AP-1/AP1 probe complexes were next conjugated to a streptavidin-coated assay plate and detected using an AP-1 specific antibody, followed by binding of a horseradish-peroxidase conjugated secondary antibody, and detection by a colorimetric reagent. *, p<0.001.
Although several signal transduction pathways are likely involved in the fructose-mediated enhanced breast cancer growth and while not wishing to be bound by any particular theory, the inventors believe that the MAP-kinase pathway is involved. The inventors have used Western blot analysis to examine the MAPK pathway in breast cancer cells incubated in 2 mM glucose, 5.5 mM glucose, and 5.5 mM fructose for 48 hours. […] Activation of MEK, and subsequently ERK results in phosphorylation of p90^Rsk, which leads to transcriptional activation of CREB and AP1, which bind to cAMP or AP1 response elements respectively, activating gene transcription and promoting cellular growth.
For orientation: In an ELISA, binding on a coated surface is turned into a signal by an enzyme label.

Assay [1] has as its system fructokinase-1 (FK-1) mRNA. Briefly: RT-PCR of fructokinase-1 mRNA in MCF-7 cells. The following applies: MCF-7 grown in 5 mM fructose vs 2 mM and 5 mM glucose. How it is done: FIG. 7 depicts fructokinase-1 expression in accordance with an embodiment of the present invention. Breast cancer cells (MCF-7) express Fructokinase-1 (FK-1). RT-PCR was used to measure fructokinase-1 (FK-1) mRNA levels in MCF-7 cells following growth in 2 mM glucose, 5.5 mM glucose, or 5.5 mM fructose for 24 h, and in two human breast cancers (BT 1 & 2), and matched adjacent normal breast tissue (NB 1 & 2) from the same individual. […] Human liver, and exclusion of template served as positive and negative controls.
The inventors used RT-PCR analysis and specific primer pairs (SEQ ID NO: 1 (3′[…]), SEQ ID NO: 2 (5′[…])) to examine fructokinase-1 (FK-1) mRNA levels in glucose- or fructose-treated breast cancer cells. […] Also examined were FK-1 mRNA levels in two surgically resected human breast cancers, and paired adjacent normal breast tissue from the same individual. FK-1 mRNA was detectable in both normal and tumor tissue.

The structures appear in SMILES notation.

Take `O=C(CO)[C@@H](O)[C@H](O)[C@H](O)CO` [fructose]: in the assay with MAPK pathway, the pERK expression result is on record as “highest”, the pMEK expression result is recorded as “highest” and the pRSK expression result was “highest”. Further, the proliferative rates entry with PANC-1 cells (5 mM fructose vs 5-fold higher glucose (25 mM), 72 h) is reported as “higher proliferative rates”. Also, the “higher proliferative rate, fructose vs glucose” value in the assay on PANC-1 cells (5.5 mM fructose vs 5.5 mM glucose, 72 h (maximal)) is given as 23%. Also, the “fructose concentration giving increase in cell proliferation regardless of co-existent glucose” value in the assay with PANC-1 cells (72 h, glucose 0-15 mM admixed with fructose 0-15 mM) is no less than 6 mM. For the same compound, the “fructose concentration at which increased proliferation was first demonstrable” value with PANC-1 cells (72 h, range 2-25 mM) was “around 5 mM”. For the same compound, the “increase in AP1 activation” value in the assay on AP1 was found to be 3 fold. Also, the “FK-1 mRNA levels” value in assay [1] is recorded as “highest FK-1 levels”.

The record behind these values is US8241607B2, “Use of fructose-based compounds for the diagnosis of cancer” (priority 2005, dated 2012).
